One may read the remaining activity as the share of the control activity or signal that is left under treatment. What is called IC50 is the concentration needed to halve the response being measured.

These results are taken from article PMC6362118, “Pharmacophore-guided discovery of CDC25 inhibitors causing cell cycle arrest and tumor regression” (Scientific Reports, 2019).

Structures are written as SMILES.

One assay deals with T1, CDC25A (Homo sapiens, UniProt P30304).
T1 construct: GST (pGEX vector) (N); made in house; host or cells: E. coli BL21
T1 sequence (P30304 1-524): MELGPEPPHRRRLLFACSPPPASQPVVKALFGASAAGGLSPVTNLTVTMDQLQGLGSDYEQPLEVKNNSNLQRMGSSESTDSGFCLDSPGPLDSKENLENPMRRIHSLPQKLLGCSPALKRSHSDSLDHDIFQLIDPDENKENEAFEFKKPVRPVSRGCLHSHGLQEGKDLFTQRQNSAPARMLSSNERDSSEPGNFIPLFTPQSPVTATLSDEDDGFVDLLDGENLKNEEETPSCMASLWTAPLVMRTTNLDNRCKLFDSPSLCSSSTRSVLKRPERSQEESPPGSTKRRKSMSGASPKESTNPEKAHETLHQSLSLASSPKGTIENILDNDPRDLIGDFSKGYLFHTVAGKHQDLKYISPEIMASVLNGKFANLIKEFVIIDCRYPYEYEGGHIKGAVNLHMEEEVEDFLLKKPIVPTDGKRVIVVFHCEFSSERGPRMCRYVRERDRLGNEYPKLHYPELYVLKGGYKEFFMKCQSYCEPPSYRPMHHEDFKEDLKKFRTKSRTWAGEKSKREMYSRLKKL
The assay can be described thus: Enzymatic assay (OMFP substrate) on recombinant CDC25A. The conditions noted are these: for remaining activity at 20 µM: read-out: % remaining activity ± SD (Table S2, second round of selection); for IC50: dose-response on recombinant CDC25A. The format is biochemical. The procedure: 57 UPD compounds were dissolved in DMSO at 10 mM stock concentration and stored in
60 Expression and purification of CDC25 phosphatases - CDC25A (kind gift of I.
61 Hoffmann, Heidelberg, Germany), CDC25B and CDC25C (kind gift of B. Gabrielli,
62 Queensland, Australia) in pGEX were expressed in E. coli BL21 cells and purified on 1
63 ml Glutathione Sepharose 4 Fast Flow columns as described 1.
65 Enzymatic assays - CDC25A, CDC25B and CDC25C were appropriately diluted in 10
66 mM Tris-HCl pH 8.0, 50 mM NaCl and assayed in 20 mM Tris-HCl pH 8.0, 75 mM
67 NaCl, 0.5 mM EGTA, 1 mM DTT, 0.1 mg/ml BSA and defined concentrations of
68 compounds. Reactions were started by addition of the substrate OMFP (0.1 mM). Assays
69 were carried out at room temperature in duplicate or triplicate using transparent-bottom,
70 V-shaped 96 well plates and read at defined intervals on a Molecular Devices
71 SpectraMax microplate reader (ex: 490 nm / em: 525 nm). IC50 and kinetic parameters
72 calculated from Lineweaver-Burk double-reciprocal plots of the data were obtained using
73 GraphPad Prism software. […]

Assay [1] deals with HeLa cells. Nature of the assay: Flow cytometric analysis of cell cycle progression (DNA content) in HeLa cells. The conditions noted are these: for effect on the G1/S transition: HeLa synchronized at G2/M, 10 μM added in mid-G1, analysed 12 h post-release; for effect on cell cycle distribution (DNA content): asynchronous HeLa cells, 10 μM, 15 h. Format: cell-based. The method, then:
Reactions were started by addition of the substrate OMFP (0.1 mM). Assays 69 were carried out at room temperature in duplicate or triplicate using transparent-bottom, 70 V-shaped 96 well plates and read at defined intervals on a Molecular Devices 71 SpectraMax microplate reader (ex: 490 nm / em: 525 nm). IC50 and kinetic parameters 72 calculated from Lineweaver-Burk double-reciprocal plots of the data were obtained using 73 GraphPad Prism software. 74 75 Cell culture - Wild-type HeLa and Kyoto HeLa cells stably expressing mCherry-H2B 76 were maintained in DMEM+L-Glutamine (Gibco, Life Technologies, USA) 77 supplemented with 5% fetal calf serum (FCS) (Gibco) and penicillin-streptomycin (100 […] A549 and Colo741 were grown and maintained like HeLa 79 cells but with 10% FCS. HCT116 were maintained in McCoy's medium supplemented 80 with 10% FCS and penicillin-streptomycin. U2OS-Tet-OFF cells expressing HA-CDC25 81 were grown and maintained in DMEM+L-Glutamine, 10% Tet-free FCS and penicillin- 82 streptomycin in the presence or the absence of 4 μg/ml tetracycline (Sigma, T7660). 83 84 Cell synchronization - Cell synchronization was performed by double thymidine block- 85 release protocol 2 or nocodazole treatment 3 and verified by flow cytometry. 86 87 Cell viability assays - Compounds viability upon 48h treatment with the compounds was 88 assessed as described 4. Data were plotted with Prism 7® and analyzed by non-linear 89 regression. Comparison of single curve fitting to all data set within an experiment was 90 performed with the extra sum-of-squares F-test to determine P values. 91 92 Western blotting - Cell lysis and immunoblot analysis were performed as previously 93 described 5. […] Cells were washed with PBS, resuspended […] To 100 quantify phosphorylation of CDK1 at Tyr15 and H2AX at S139, cells were harvested and 101 examined as described 6. Samples were measured on an AttuneTM NxT Cytometer 102 (ThermoFisher Scientific, Carlsbad, CA, USA) and data were analyzed with FlowJo® 103 software v10 (FlowJo, LLC, Ashland, OR, USA). 104 105 Real Time qRT-PCR - Organoids were lysed in Tri-Reagent (Sigma) as previously 106 described 7 and total RNA was isolated as described by manufacturer's instructions. For […] 108 High Fidelity cDNA Synthesis kit (Roche). Real-time quantitative PCR reactions were 109 performed in three independent biological replicates, each with technical triplicate, using 110 the Applied Biosystems SYBR Green Kit and monitored by the ABI Prism 7900HT 111 system (Applied Biosystem). The following primers were used: 112 Lgr5: Forward [NT] and Reverse 5'- […] 114 Lysozyme: Forward [NT] and Reverse 5'- 115 [NT]3' 116 Cryptdin: Forward [NT] and Reverse 5'- 117 [NT]-binding protein (TBP): Forward [NT] and 119 Reverse [NT] 120 […] 122 amplification curves and the melting temperature analysis of the final amplification […] 4
On the technique in general: In flow cytometry, cells or beads pass a laser one at a time.

The subject of assay [2] is HeLa cells. The assay can be described thus: Cell viability assay on HeLa cells. The conditions noted are these: Homo sapiens, 48h treatment. The format is cell-based. The procedure:
75 Cell culture - Wild-type HeLa and Kyoto HeLa cells stably expressing mCherry-H2B
76 were maintained in DMEM+L-Glutamine (Gibco, Life Technologies, USA)
77 supplemented with 5% fetal calf serum (FCS) (Gibco) and penicillin-streptomycin (100
78 U/ml - 100 µg/ml) (Gibco). […]
87 Cell viability assays - Compounds viability upon 48h treatment with the compounds was
88 assessed as described 4. Data were plotted with Prism 7® and analyzed by non-linear
89 regression. Comparison of single curve fitting to all data set within an experiment was
90 performed with the extra sum-of-squares F-test to determine P values. […]

A further assay relates to HCT116 tumors. The assay can be described thus: HCT116 tumor xenograft in zebrafish embryos. The format is in vivo. The conditions noted are these: 10 µM, 3 dpi. The procedure:
Implantation of HCT116 cells into zebrafish embryos were carried out essentially as previously described. Briefly, HCT116 cells were cultured in McCoy’s medium supplemented with 10% FCS and penicillin/streptomycin until ~80% confluence, then labeled for 30 min at 37 °C in 6 μg/mL 1,1′-dioctadecyl-3,3,3′,3′-tetramethylindocarbocyanine perchlorate (DiI, Sigma) in PBS followed by washing 3x in PBS. Labeled cells were implanted in the perivitelline space of 48 hours post-fertilization (hpf) wildtype (AB) zebrafish embryos, kept from the 1-cell stage in 1-phenyl-2-thiourea (PTU)-containing E3-water. […] As control, embryos were incubated in PTU-E3 with 0.1% DMSO (vehicle). Tumor-bearing embryos were incubated at 36 °C for three days and the change in tumor volume was evaluated as the size of the tumors at three days post-implantation (3 dpi) relative to the size immediately after implantation (0 dpi). Metastasis was evaluated at 3 dpi as the number of tumor cells present in the caudal hematopoietic plexus, the main metastatic site for tumors implanted in the perivitelline space.

Assay [3] deals with HeLa cells. Nature of the assay: Time-lapse microscopy of mitosis in synchronized HeLa cells. Format: cell-based. The conditions noted are these: synchronized HeLa Kyoto cells (mCherry-H2B, GFP-α-tubulin), 5 μM. The method, then:
Cells were grown in 35 mm CellView™ cell culture dishes with glass bottom (# 627870, Greiner-BioOne) at a density of 2.5 × 10^5 cells/ml in a humidified cell incubator maintained at 37 °C and 5% CO2. Cell were viewed by phase contrast microscopy with a 10x objective using an Olympus IX 81 motorized inverted microscope (Olympus, Hamburg, Germany) equipped with external temperature control chamber and CO2 bottle to maintain cells at 37 °C with 5% CO2. Transition through mitosis was documented by acquisition of four frames per hour over a period of 14 h using a CCD camera (Orca AG, Hamamatsu) and cellR® software (Olympus). HeLa-Kyoto cells (mCherry-H2B/EGFP-α-tubulin) were visualized by fluorescence microscopy with an Olympus IX 81 microscope using a 10x objective and selecting Ex. = 492 ± 18 nm/Em. = 535 ± 50 nm for the green channel and Ex. = 572 ± 23 nm/Em. = 645 ± 75 nm for the red channel.

Setting [4] is: compound 20 µM, relative to DMSO control.

As to `O=C1C=C(c2ccc(O)c(O)c2O)C(=O)c2ccccc21` [UPD-596, 2-(2,3,4-trihydroxyphenyl)-1,4-naphthoquinone], the remaining activity at 20 µM at CDC25A (setting [4]) turned out to be 0%. Also, in the assay on HeLa cells [1], the “effect on the G1/S transition” value was “ineffective” and the “effect on cell cycle distribution (DNA content)” value (“effect … (DNA content)” below) was “increase of the G1 population”.
For `O=C1C=C(c2ccc(O)cc2O)C(=O)c2ccccc21` [UPD-597, 2-(2,4-dihydroxyphenyl)-1,4-naphthoquinone], at CDC25A (setting [4]), the remaining activity at 20 µM was 3.1 ± 0.3%.
Take `O=C(O)c1ccc2c(c1)C(=O)c1c(O)ccc(O)c1C2=O` [UPD-724, 1,4-dihydroxy-6-anthraquinonecarboxylic acid]: the remaining activity at 20 µM on CDC25A (setting [4]) is 98.9 ± 1.4%.
In the case of `O=C1C=CC(=O)c2c(O)cccc21` [UPD-738, 5-hydroxynaphtho-1,4-quinone], the remaining activity at 20 µM at CDC25A (setting [4]) was 5.9 ± 0.1%. The compound also displayed an IC50 in the assay on HeLa cells [2] of 4.4 µM. Besides, in the assay with HeLa cells [1], the “effect on the G1/S transition” value is reported as “effectively blocked cells in G1” and the “effect … (DNA content)” value is recorded as “increase of the G1 population”. In the assay with HCT116 tumors, the “metastasis (tumor cells in caudal hematopoietic plexus)” value is recorded as “did not appear to be significant”.
`O=C1C=C(c2ccc(O)c(O)c2O)C(=O)c2c(O)cccc21` [UPD-786, 8-hydroxy-2-(2,3,4 trihydroxyphenyl) naphthalene-1,4-dione]: on CDC25A (setting [4]), the remaining activity at 20 µM was found to be 0%. In addition, the IC50 on CDC25A came to 0.89 µM; in the assay on HeLa cells [2], 6.5 µM. For the same compound, the “effect … (DNA content)” value with HeLa cells [1] is given as “increase of the G1 population”.
Regarding `O=C1C=C(c2c(O)cc(O)cc2O)C(=O)c2c(O)cccc21` [UPD-788, 8-hydroxy-2-(2,4,6-trihydroxyphenyl)naphthalene-1,4-dione], the remaining activity at 20 µM on CDC25A (setting [4]) worked out at 70.1 ± 2%.
Take `COc1ccc(C2=CC(=O)c3cccc(O)c3C2=O)c(OC)c1` [UPD-790, 8-hydroxy-2-(2,4-dimethoxyphenyl)naphthalene-1,4-dione]: the remaining activity at 20 µM at CDC25A (setting [4]) turned out to be 5.6 ± 1.2%. In the assay with HeLa cells [2], this compound showed an IC50 of 1.41 µM. In addition, in the assay on HeLa cells [1], the “effect … (DNA content)” value is “accumulation of cells at G2/M”. Besides, in the assay on HeLa cells [1] (double-thymidine synchronized HeLa, 10 μM added 5 h upon release, analysed 12 h post-release), the “effect on the G2/M transition” value is reported as “accretion of the G2/M peak”. For the same compound, the “execution of mitosis at low dose (time-lapse)” value in the assay with HeLa cells [3] is “failed attempt to round up and execute mitosis, which was followed by membrane blebbing and death”.
Regarding `Cc1ccc(SC2=CC(=O)c3cccc(O)c3C2=O)cc1` [UPD-793, 3-(p-tolylthio)juglone], the “% remaining activity ± SD (Table S2, second round of selection)” value at CDC25A (setting [4]) is reported as 1.0 ± 0.1%. Moreover, the IC50 on CDC25A was determined as 0.92 µM. Also, in the assay on HeLa cells [1], the “effect on the G1/S transition” value is listed as “effectively blocked cells in G1” and the “effect … (DNA content)” value is given as “increase of the G1 population”.
For the compound `O=C1C=C(N2CCCCC2)C(=O)c2c(O)cccc21` [UPD-797, 8-hydroxy-2-(piperidin-1-yl)naphthalene-1,4-dione], the remaining activity at 20 µM on CDC25A (setting [4]) amounted to 8.5 ± 0.1%.
Turning to `O=C1C=C(N2CCOCC2)C(=O)c2c(O)cccc21` [UPD-798, N-(5-hydroxy-1,4-naphthoquinon-3-yl)morpholine], at CDC25A (setting [4]), the remaining activity at 20 µM was 41.4 ± 0.4%.
On to `Nc1ccc(N)c2c1C(=O)C=CC2=O` [UPD-1382, 5,8-diaminonaphthalene-1,4-dione], for which the remaining activity at 20 µM on CDC25A (setting [4]) was 94.4 ± 0.6%.
Turning to `Cc1cc(O)c2c(n1)C(=O)C=CC2=O` [UPD-1416, 4-Hydroxy-2-methylquinoline-5,8-dione], the remaining activity at 20 µM at CDC25A (setting [4]) is 4.1%.
`Cc1ccc2c(n1)C(=O)C=CC2=O` [UPD-1419, 2-methyl-5,8-dihydro-5,8-dioxoquinoline]: the remaining activity at 20 µM on CDC25A (setting [4]) turned out to be 1.9 ± 0.3%.
